Source: US20240368096A1 (Enanta Pharmaceuticals, Inc., priority 2022, published 2024)

Each compound was assayed on HBV (assay: HBV infection in HepG2-NTCP cells (HBeAg AlphaLISA in supernatants)). Settings: Hepatitis B virus, 192 h; HBV infection of HepG2-NTCP cells; HBeAg in supernatants at day 8 post infection; read-out: Cellular EC50.
Assay type: cell-based
In short: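 HepG2-NTCP A3 cells were pre-incubated 2 h with 3-fold serially diluted compounds, then infected with HBV at 2000 GE/cell with 4% PEG (0.5% DMSO final). After washing on day 1, cells stayed in 2.5% DMSO medium; supernatant HBeAg measured by AlphaLISA on day 8, EC50 versus DMSO controls.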
For `CC(C)C[C@@H]1CN(c2ccccc2)c2cc(Oc3ccc(C(F)(F)F)cc3)c(-c3ccc(F)c(C(=O)O)c3)cc2S(=O)(=O)N1C` [Example 426], the EC50 was 100 to 1000 nM.
`COc1cccc(Oc2cc3c(cc2-c2ccc(F)c(C(=O)O)c2)S(=O)(=O)N(C)[C@H](CC(C)C)CN3c2ccccc2)c1` [Example 427] gave an EC50 of less than 100 nM.
With `COc1ccccc1Oc1cc2c(cc1-c1ccc(F)c(C(=O)O)c1)S(=O)(=O)N(C)[C@H](CC(C)C)CN2c1ccccc1` [Example 428] the EC50 was less than 100 nM.
Compound `CC(C)C[C@@H]1CN(c2ccccc2)c2cc(Oc3ccccc3F)c(-c3ccc(F)c(C(=O)O)c3)cc2S(=O)(=O)N1C` [Example 429] has an EC50 of less than 100 nM.
`CC(C)C[C@@H]1CN(c2ccccc2)c2cc(Oc3ccc(F)cc3)c(-c3ccc(F)c(C(=O)O)c3)cc2S(=O)(=O)N1C` [Example 430] was tested, and the EC50 was less than 100 nM.
`CC(C)C[C@@H]1CN(c2ccccc2)c2cc(Oc3ccccc3Cl)c(-c3ccc(F)c(C(=O)O)c3)cc2S(=O)(=O)N1C` [Example 431] gave an EC50 of less than 100 nM.
`CC(C)C[C@@H]1CN(c2ccccc2)c2cc(Oc3cccc(Cl)c3)c(-c3ccc(F)c(C(=O)O)c3)cc2S(=O)(=O)N1C` [Example 432] was tested, and the EC50 was 100 to 1000 nM.
In the case of `CC(C)C[C@@H]1CN(c2ccccc2)c2cc(Oc3ccc(Cl)cc3)c(-c3ccc(F)c(C(=O)O)c3)cc2S(=O)(=O)N1C` [Example 433], the EC50 is reported as 100 to 1000 nM.
`CC(C)C[C@@H]1CN(c2ccccc2)c2cc(Oc3ccc(Cl)c(C(F)(F)F)c3)c(-c3ccc(F)c(C(=O)O)c3)cc2S(=O)(=O)N1C` [Example 434] was tested, and the EC50 was 100 to 1000 nM.
`CC(C)C[C@@H]1CN(c2ccccc2)c2cc(Oc3cc(Cl)cc(Cl)c3)c(-c3ccc(F)c(C(=O)O)c3)cc2S(=O)(=O)N1C` [Example 435] gave an EC50 of less than 100 nM.
For `Cc1ccc(Cl)c(Oc2cc3c(cc2-c2ccc(F)c(C(=O)O)c2)S(=O)(=O)N(C)[C@H](CC(C)C)CN3c2ccccc2)c1` [Example 436], the EC50 was less than 100 nM.
`CC(C)C[C@@H]1CN(c2ccccc2)c2cc(Oc3ccccc3OC(F)(F)F)c(-c3ccc(F)c(C(=O)O)c3)cc2S(=O)(=O)N1C` [Example 437] showed an EC50 of less than 100 nM.
Work on `CC(C)C[C@@H]1CN(c2ccccc2)c2cc(Oc3cccc(OC(F)(F)F)c3)c(-c3ccc(F)c(C(=O)O)c3)cc2S(=O)(=O)N1C` [Example 438] yielded an EC50 of less than 100 nM.
Compound `CC(C)C[C@@H]1CN(c2ccccc2)c2cc(Oc3ccc(OC(F)(F)F)cc3)c(-c3ccc(F)c(C(=O)O)c3)cc2S(=O)(=O)N1C` [Example 439] has an EC50 of less than 100 nM.
`CC(C)C[C@@H]1CN(c2ccccc2)c2cc(OC(C)(C)C)c(-c3ccc(Cl)c(C(=O)O)c3)cc2S(=O)(=O)N1C` [Example 440] was tested, and the EC50 was less than 100 nM.
Work on `CC(C)C[C@@H]1CN(c2ccccc2)c2cc(OC34CC5CC(CC(C5)C3)C4)c(-c3ccc(F)c(C(=O)O)c3)cc2S(=O)(=O)N1C` [Example 441] yielded an EC50 of less than 100 nM.
`CC(C)C[C@@H]1CN(c2ccccc2)c2cc(O[C@@H]3C[C@H](C)CCC3C(C)C)c(-c3ccc(F)c(C(=O)O)c3)cc2S(=O)(=O)N1C` (some centres unmarked) [Example 442] showed an EC50 of less than 100 nM.
Compound `CC(C)C[C@@H]1CN(c2ccccc2)c2cc(OC3COC3)c(-c3ccc(F)c(C(=O)O)c3)cc2S(=O)(=O)N1C` [Example 443] has an EC50 of 100 to 1000 nM.
For `CC(C)C[C@@H]1CN(c2ccccc2)c2cc(OC3CC4(COC4)C3)c(-c3ccc(F)c(C(=O)O)c3)cc2S(=O)(=O)N1C` [Example 444], the EC50 was 100 to 1000 nM.
Work on `COCCOc1cc2c(cc1-c1ccc(Cl)c(C(=O)O)c1)S(=O)(=O)N(C)[C@H](CC(C)C)CN2c1ccccc1` [Example 445] yielded an EC50 of 100 to 1000 nM.
`CC(C)C[C@@H]1CN(c2ccccc2)c2cc(O[C@H]3CCOC3)c(-c3ccc(F)c(C(=O)O)c3)cc2S(=O)(=O)N1C` [Example 446] showed an EC50 of 100 to 1000 nM.
With `CC(C)C[C@@H]1CN(c2ccccc2)c2cc(OC3CN(C)C3)c(-c3ccc(F)c(C(=O)O)c3)cc2S(=O)(=O)N1C` [Example 447] the EC50 was greater than 1000 nM.
Compound `CC(C)C[C@@H]1CN(c2ccccc2)c2cc(OC3CCN(C)CC3)c(-c3ccc(F)c(C(=O)O)c3)cc2S(=O)(=O)N1C` [Example 448] has an EC50 greater than 1000 nM.
With `CC(C)C[C@@H]1CN(c2ccccc2)c2cc(OCC3CCCN3C)c(-c3ccc(F)c(C(=O)O)c3)cc2S(=O)(=O)N1C` (some centres unmarked) [Example 449] the EC50 was greater than 1000 nM.
`CC(C)C[C@@H]1CN(c2ccccc2)c2cc(OCC34CCCN3CCC4)c(-c3ccc(F)c(C(=O)O)c3)cc2S(=O)(=O)N1C` [Example 450] gave an EC50 greater than 1000 nM.
Compound `CC(C)C[C@@H]1CN(c2ccccc2)c2cc(OCCN(C)C)c(-c3ccc(F)c(C(=O)O)c3)cc2S(=O)(=O)N1C` [Example 451] has an EC50 greater than 1000 nM.
Compound `CC(C)C[C@@H]1CN(c2ccccc2)c2cc(OC(C)(C)C(F)(F)F)c(-c3ccc(Cl)c(C(=O)O)c3)cc2S(=O)(=O)N1C` [Example 452] has an EC50 of 100 to 1000 nM.
Compound `CC(C)C[C@@H]1CN(c2ccccc2)c2cc(OCC(F)(F)F)c(-c3ccc(F)c(C(=O)O)c3)cc2S(=O)(=O)N1C` [Example 453] has an EC50 of less than 100 nM.
`CC(C)C[C@@H]1CN(c2ccccc2)c2cc(OC3(C)CCCC3)c(-c3ccc(Cl)c(C(=O)O)c3)cc2S(=O)(=O)N1C` [Example 454] was tested, and the EC50 was less than 100 nM.
With `CC(C)C[C@@H]1CN(c2ccccc2)c2cc(OC(C)(C)c3ccccc3)c(-c3ccc(Cl)c(C(=O)O)c3)cc2S(=O)(=O)N1C` [Example 455] the EC50 was 100 to 1000 nM.
For `CC(C)C[C@@H]1CN(c2ccccc2)c2cc(OCc3cccnc3)c(-c3ccc(F)c(C(=O)O)c3)cc2S(=O)(=O)N1C` [Example 456], the EC50 was 100 to 1000 nM.
`Cc1nnc(COc2cc3c(cc2-c2ccc(F)c(C(=O)O)c2)S(=O)(=O)N(C)[C@H](CC(C)C)CN3c2ccccc2)o1` [Example 457] showed an EC50 of 100 to 1000 nM.
Compound `CC(C)C[C@@H]1CN(c2ccccc2)c2cc(OCc3cncs3)c(-c3ccc(F)c(C(=O)O)c3)cc2S(=O)(=O)N1C` [Example 458] has an EC50 of less than 100 nM.
`CC(C)C[C@@H]1CN(c2ccccc2)c2cc(OCc3ccccn3)c(-c3ccc(F)c(C(=O)O)c3)cc2S(=O)(=O)N1C` [Example 459] showed an EC50 of less than 100 nM.
For `CC(C)C[C@@H]1CN(c2ccccc2)c2cc(OCCc3cscn3)c(-c3ccc(F)c(C(=O)O)c3)cc2S(=O)(=O)N1C` [Example 460], the EC50 was less than 100 nM.
`CC(C)C[C@@H]1CN(c2ccccc2)c2cc(OCCc3ccoc3)c(-c3ccc(F)c(C(=O)O)c3)cc2S(=O)(=O)N1C` [Example 461] gave an EC50 of less than 100 nM.
`CC(C)C[C@@H]1CN(c2ccccc2)c2cc(OCc3cocn3)c(-c3ccc(F)c(C(=O)O)c3)cc2S(=O)(=O)N1C` [Example 462] showed an EC50 of less than 100 nM.
`CN1[C@H](C2CCC2)CN(c2ccccc2)c2cc(Oc3ccccc3F)c(-c3ccc(F)c(C(=O)O)c3)cc2S1(=O)=O` [Example 463] gave an EC50 of less than 100 nM.
`CN1[C@H](C2CCC2)CN(c2ccccc2)c2cc(OCC(F)(F)F)c(-c3ccc(F)c(C(=O)O)c3)cc2S1(=O)=O` [Example 464] was tested, and the EC50 was 100 to 1000 nM.
In the case of `CN1[C@H](C2CCC2)CN(c2ccccc2)c2cc(OC(C)(C)C)c(-c3ccc(F)c(C(=O)O)c3)cc2S1(=O)=O` [Example 465], the EC50 is reported as 100 to 1000 nM.
In the case of `CC(C)C[C@@H]1CN(C2CC(F)(F)C2)c2cc(Oc3ccccc3F)c(-c3ccc(F)c(C(=O)O)c3)cc2S(=O)(=O)N1C` [Example 466, (R)-5-(5-(3,3-difluorocyclobutyl)-7-(2-fluorophenoxy)-3-isobutyl-2-methyl-1,1-dioxido-2,3,4,5-tetrahydrobenzo[f][1,2,5]thiadiazepin-8-yl)-2-fluorobenzoic acid], the EC50 is reported as 100 to 1000 nM.
`CC(C)C[C@@H]1CN(C2CC3(CCC3)C2)c2cc(Oc3ccccc3F)c(-c3ccc(F)c(C(=O)O)c3)cc2S(=O)(=O)N1C` [Example 467] was tested, and the EC50 was 100 to 1000 nM.
In the case of `CC(C)C[C@@H]1CN(C(C)C)c2cc(Oc3ccccc3F)c(-c3ccc(F)c(C(=O)O)c3)cc2S(=O)(=O)N1C` [Example 468], the EC50 is reported as 100 to 1000 nM.
Compound `CC(C)C[C@@H]1CN(C23CC(C2)C3)c2cc(Oc3ccccc3F)c(-c3ccc(F)c(C(=O)O)c3)cc2S(=O)(=O)N1C` [Example 469] has an EC50 of 100 to 1000 nM.
`CC(C)C[C@@H]1CN([C@@H]2CCOC2)c2cc(Oc3ccccc3F)c(-c3ccc(F)c(C(=O)O)c3)cc2S(=O)(=O)N1C` [Example 470] was tested, and the EC50 was 100 to 1000 nM.
`CC(C)C[C@@H]1CN(C2CC2)c2cc(Oc3ccccc3F)c(-c3ccc(F)c(C(=O)O)c3)cc2S(=O)(=O)N1C` [Example 471] was tested, and the EC50 was 100 to 1000 nM.
Compound `CO[C@H]1C[C@H](N2C[C@@H](CC(C)C)N(C)S(=O)(=O)c3cc(-c4ccc(F)c(C(=O)O)c4)c(Oc4ccccc4F)cc32)C1` [Example 472] has an EC50 of 100 to 1000 nM.
Work on `CO[C@H]1C[C@@H](N2C[C@@H](CC(C)C)N(C)S(=O)(=O)c3cc(-c4ccc(F)c(C(=O)O)c4)c(Oc4ccccc4F)cc32)C1` [Example 473] yielded an EC50 of 100 to 1000 nM.
Compound `CC(C)C[C@@H]1CN([C@H]2CCOC2)c2cc(Oc3ccccc3F)c(-c3ccc(F)c(C(=O)O)c3)cc2S(=O)(=O)N1C` [Example 474] has an EC50 of 100 to 1000 nM.
In the case of `CC(C)C[C@@H]1CN(CC(C)C)c2cc(Oc3ccc(F)cc3)c(-c3ccc(F)c(C(=O)O)c3)cc2S(=O)(=O)N1C` [Example 475, (R)-2-fluoro-5-(7-(4-fluorophenoxy)-3,5-diisobutyl-2-methyl-1,1-dioxido-2,3,4,5-tetrahydrobenzo[f][1,2,5]thiadiazepin-8-yl)benzoic acid], the EC50 is reported as 100 to 1000 nM.
Compound `CN1[C@H](C2CCCCC2)CNc2cc(OCC(F)(F)F)c(-c3ccc(Cl)c(C(=O)O)c3)cc2S1(=O)=O` [Example 477] has an EC50 of 100 to 1000 nM.
`COCCOc1cc2c(cc1-c1ccc(NC(=O)OCc3ccccc3)c(C(=O)O)c1)S(=O)(=O)N(C)[C@H](C1CCCCC1)CN2c1ccccc1` [Example 478, (R)-2-(((benzyloxy)carbonyl)amino)-5-(3-cyclohexyl-7-(2-methoxyethoxy)-2-methyl-1,1-dioxido-5-phenyl-2,3,4,5-tetrahydrobenzo[f][1,2,5]thiadiazepin-8-yl)benzoic acid] gave an EC50 of less than 100 nM.
`COCCOC(=O)Nc1ccc(-c2cc3c(cc2OCCOC)N(c2ccccc2)C[C@@H](C2CCCCC2)N(C)S3(=O)=O)cc1C(=O)O` [Example 479, (R)-5-(3-cyclohexyl-7-(2-methoxyethoxy)-2-methyl-1,1-dioxido-5-phenyl-2,3,4,5-tetrahydrobenzo[f][1,2,5]thiadiazepin-8-yl)-2-(((2-methoxyethoxy)carbonyl)amino)benzoic acid] gave an EC50 of less than 100 nM.
